In experiment [1] the target is 5-hydroxytryptamine receptor 2B (Homo sapiens, UniProt P41595). It counts as cell membranes, CHO-K1, Membrane. Further: in other assays of this panel Not Active means under 50% inhibition at 10 µM.
For the next experiment, the target named is T1, Progesterone receptor (Bos taurus, UniProt Q690N0).
T1 sequence (Q690N0 whole entry): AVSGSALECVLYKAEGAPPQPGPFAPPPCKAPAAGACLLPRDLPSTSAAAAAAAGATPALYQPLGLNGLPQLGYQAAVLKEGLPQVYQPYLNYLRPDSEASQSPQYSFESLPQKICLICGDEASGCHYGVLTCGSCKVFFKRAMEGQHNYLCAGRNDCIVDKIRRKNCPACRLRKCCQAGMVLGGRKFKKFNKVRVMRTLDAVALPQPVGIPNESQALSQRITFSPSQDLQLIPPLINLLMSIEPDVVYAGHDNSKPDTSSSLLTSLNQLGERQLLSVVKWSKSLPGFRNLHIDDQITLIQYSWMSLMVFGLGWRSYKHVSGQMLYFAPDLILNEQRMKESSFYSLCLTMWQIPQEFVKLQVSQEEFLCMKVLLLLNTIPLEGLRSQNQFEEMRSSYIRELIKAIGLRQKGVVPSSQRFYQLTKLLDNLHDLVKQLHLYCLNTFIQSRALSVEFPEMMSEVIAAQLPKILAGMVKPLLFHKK
As to the kind of experiment: DRUGMATRIX: Progesterone radioligand binding (ligand: [3H] R-5020). The experiment is classed as tissue-based, Uterus. The note with it: Not Active = under 50% inhibition at 10 µM.

Experiment [2] is described as follows: DRUGMATRIX: Calcium Channel Type L, Phenylalkylamine radioligand binding (ligand: [3H] (-)-Desmethoxyverapamil (D-888)). The note with it: Not Active = under 50% inhibition at 10 µM. The experiment is classed as cell membranes, Rattus norvegicus, Wistar, Brain, Membrane.
Experiment [3] has as its target Protein kinase C alpha type (Homo sapiens, UniProt P17252). It counts as cell-based. The note with it: sf9.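 Further: inhibition of PKCalpha kinase activity measured in an enzyme assay with histone as the phosphorylation substrate; in other assays of this panel Not Active means under 50% inhibition at 10 µM.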
A further experiment addresses Estrogen receptor beta (Homo sapiens, UniProt Q92731). The note with it: sf9.
Experiment [4] can be described thus: DRUGMATRIX: Purinergic P2X radioligand binding (ligand: [3H] alpha, beta-Methylene-ATP). It counts as cell membranes, Oryctolagus cuniculus, New Zealand albino, Urinary bladder, Membrane. The note with it: Not Active = under 50% inhibition at 10 µM.
The target of experiment [5] is T2, Neuropeptide Y receptor type 2 (Homo sapiens, UniProt P49146). Further: in other assays of this panel Not Active means under 50% inhibition at 10 µM.
T2 sequence (P49146 whole entry): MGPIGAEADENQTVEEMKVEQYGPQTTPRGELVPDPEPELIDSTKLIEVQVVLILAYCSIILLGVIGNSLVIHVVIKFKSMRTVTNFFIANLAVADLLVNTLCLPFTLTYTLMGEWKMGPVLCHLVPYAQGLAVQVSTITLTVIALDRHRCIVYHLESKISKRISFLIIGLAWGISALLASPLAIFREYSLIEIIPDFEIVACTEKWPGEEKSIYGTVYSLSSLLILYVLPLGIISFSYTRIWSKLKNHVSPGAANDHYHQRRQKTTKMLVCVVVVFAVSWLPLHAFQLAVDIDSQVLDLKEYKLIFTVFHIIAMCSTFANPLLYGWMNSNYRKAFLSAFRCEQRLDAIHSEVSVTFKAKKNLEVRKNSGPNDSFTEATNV
The experiment is classed as cell membranes, Membrane. To be noted: kan-ts.

Sequence of 5-hydroxytryptamine receptor 2B (P41595 whole entry): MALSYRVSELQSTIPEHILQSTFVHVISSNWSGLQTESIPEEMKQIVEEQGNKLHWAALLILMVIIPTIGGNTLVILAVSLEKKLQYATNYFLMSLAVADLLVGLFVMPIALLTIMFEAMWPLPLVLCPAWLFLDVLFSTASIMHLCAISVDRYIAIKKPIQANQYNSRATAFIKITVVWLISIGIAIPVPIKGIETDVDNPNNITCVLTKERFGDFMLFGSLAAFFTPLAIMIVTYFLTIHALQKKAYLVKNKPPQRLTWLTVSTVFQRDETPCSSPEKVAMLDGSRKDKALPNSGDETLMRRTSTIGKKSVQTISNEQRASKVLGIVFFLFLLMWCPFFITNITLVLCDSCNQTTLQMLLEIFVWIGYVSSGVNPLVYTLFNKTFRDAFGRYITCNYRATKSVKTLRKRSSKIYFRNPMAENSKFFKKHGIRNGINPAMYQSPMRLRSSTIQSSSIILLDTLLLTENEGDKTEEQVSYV
Sequence of Estrogen receptor beta (Q92731 whole entry): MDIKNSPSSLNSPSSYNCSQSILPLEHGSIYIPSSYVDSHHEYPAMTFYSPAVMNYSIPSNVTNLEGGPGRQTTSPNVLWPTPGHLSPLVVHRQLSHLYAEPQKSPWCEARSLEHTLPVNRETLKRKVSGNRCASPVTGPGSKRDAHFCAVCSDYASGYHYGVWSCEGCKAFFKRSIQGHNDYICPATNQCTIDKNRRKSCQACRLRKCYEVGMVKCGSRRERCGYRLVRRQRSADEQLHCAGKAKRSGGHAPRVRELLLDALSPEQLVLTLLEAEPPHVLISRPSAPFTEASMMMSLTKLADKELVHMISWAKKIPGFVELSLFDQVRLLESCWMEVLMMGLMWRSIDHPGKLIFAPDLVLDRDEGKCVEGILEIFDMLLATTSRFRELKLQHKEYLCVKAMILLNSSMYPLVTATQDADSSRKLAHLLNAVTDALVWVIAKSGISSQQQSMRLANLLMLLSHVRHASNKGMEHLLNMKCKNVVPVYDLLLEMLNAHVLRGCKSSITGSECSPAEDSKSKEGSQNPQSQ

Usually IC50 stands for the concentration needed to halve the response being measured. A word on the Ki: it is a dissociation constant, usually derived from enzyme kinetics or from competition with a known ligand. Regarding `CCOc1nc2cccc(C(=O)O)c2n1Cc1ccc(-c2ccccc2-c2nnn[nH]2)cc1`, the IC50 entry (in experiment [1] (cho-k1); on Progesterone receptor; in experiment [2]; in experiment [3]; on Estrogen receptor beta; in experiment [4]) was “Not Active” each time. Further, the IC50 result in experiment [5] was “Not Active”. Also, the Ki entry in experiment [2] and in experiment [4] was “Not Active” each time.
For `O=C(O)CCCc1cccs1`, the IC50 entry (in experiment [1] (cho-k1); on Progesterone receptor; in experiment [2]; in experiment [3]; against Estrogen receptor beta; in experiment [4]) was “Not Active” each time. For the same molecule, in experiment [5], the IC50 entry was “Not Active”. Further, the Ki result in experiment [2] and in experiment [4] was “Not Active” throughout.
`O=C(c1ccccc1F)N1CCC(Cc2ccccc2)CC1`: the IC50 result (in experiment [1] (cho-k1); on Progesterone receptor; in experiment [2]; in experiment [3]; against Estrogen receptor beta; in experiment [4]) was “Not Active” each time. Further, in experiment [5], the IC50 result is reported as “Not Active”. Besides, the Ki entry in experiment [2] and in experiment [4] was “Not Active” in each case.
On to `CC(O)COC[C@H]1O[C@@H]2O[C@H]3[C@H](O)[C@@H](O)[C@@H](O[C@H]4[C@H](O)[C@@H](O)[C@@H](O[C@H]5[C@H](O)[C@@H](O)[C@@H](O[C@H]6[C@H](O)[C@@H](O)[C@@H](O[C@H]7[C@H](O)[C@@H](O)[C@@H](O[C@H]8[C@H](O)[C@@H](O)[C@@H](O[C@H]1[C@H](O)[C@H]2O)O[C@@H]8COCC(C)O)O[C@@H]7COCC(C)O)O[C@@H]6COCC(C)O)O[C@@H]5COCC(C)O)O[C@@H]4COCC(C)O)O[C@@H]3COCC(C)O` (stereo partly drawn) [2-HYDROXYPROPYL-BETA-CYCLODEXTRIN], for which the IC50 was 63 nM in experiment [1] (read-out: IC50); “Not Active” at Progesterone receptor; “Not Active” in experiment [2]; “Not Active” in experiment [3]; “Not Active” on Estrogen receptor beta; “Not Active” in experiment [4]. Moreover, the IC50 result in experiment [5] is reported as “Not Active”. Besides, the results for the Ki in experiment [1] (read-out: Ki), in experiment [2] and in experiment [4] were 40 nM, “Not Active” and “Not Active”, respectively.
As for `NC(=O)c1cccc(N)c1` [3-AMINOBENZAMIDE], the half-inhibitory concentration (IC50) entry (in experiment [1] (cho-k1); at Progesterone receptor; in experiment [2]; in experiment [3]; against Estrogen receptor beta; in experiment [4]) was “Not Active” throughout. Further, in experiment [5], the IC50 result is “Not Active”. Also, the Ki entry in experiment [2] and in experiment [4] was “Not Active” throughout.
Turning to `C[C@H]1O[C@H](O[C@H]2[C@H](O)[C@@H](O)[C@@H](O[C@H]3[C@H](O)[C@@H](O)C(O)O[C@@H]3CO)O[C@@H]2CO)[C@H](O)[C@@H](O)[C@@H]1N[C@H]1C=C(CO)[C@@H](O)[C@H](O)[C@H]1O` (stereo partly drawn) [ACARBOSE], the IC50 entry (in experiment [1] (cho-k1); on Progesterone receptor; in experiment [2]; in experiment [3]; at Estrogen receptor beta; in experiment [4]) was “Not Active” throughout. Also, the IC50 entry in experiment [5] was “Not Active”. The Ki entry in experiment [2] and in experiment [4] was “Not Active” in each case.
`CC[C@H]1[C@@H]2C[C@H]3[C@@H]4N(C)c5ccccc5[C@]45C[C@@H]([C@@H]2[C@H]5O)N3[C@@H]1O` [AJMALINE]: the IC50 entry (in experiment [1] (cho-k1); at Progesterone receptor; in experiment [2]; in experiment [3]; on Estrogen receptor beta; in experiment [4]) was “Not Active” each time. The IC50 result in experiment [5] was “Not Active”. In addition, the Ki result in experiment [2] and in experiment [4] was “Not Active” in each case.
In the case of `NCCCNCCSP(=O)(O)O` [AMIFOSTINE], the half-inhibitory concentration (IC50) result (in experiment [1] (cho-k1); in experiment [2]; in experiment [3]; against Estrogen receptor beta; in experiment [4]; in experiment [5]) was “Not Active” each time. For the same molecule, the Ki result in experiment [2] and in experiment [4] was “Not Active” in each case.
On to `CN(C)CCC=C1c2ccccc2CCc2ccccc21` [AMITRIPTYLINE], for which the IC50 entry was “Not Active” at Progesterone receptor; 840 nM in experiment [2] (read-out: IC50); “Not Active” in experiment [3]; “Not Active” at Estrogen receptor beta; “Not Active” in experiment [4]; “Not Active” in experiment [5]. Moreover, the Ki in experiment [2] (read-out: Ki) was 816 nM; in experiment [4], “Not Active”.
As to `CC(=O)Oc1ccccc1C(=O)O` [ASPIRIN], the IC50 result (in experiment [1] (cho-k1); on Progesterone receptor; in experiment [2]; in experiment [3]; against Estrogen receptor beta; in experiment [4]) was “Not Active” in each case. Also, the IC50 entry in experiment [5] is reported as “Not Active”. Also, the Ki result in experiment [2] and in experiment [4] was “Not Active” throughout.
Turning to `CC(=O)OC[C@H]1O[C@@H](n2ncc(=O)[nH]c2=O)[C@H](OC(C)=O)[C@@H]1OC(C)=O` [AZARIBINE], the IC50 result (in experiment [1] (cho-k1); at Progesterone receptor; in experiment [2]; in experiment [3]; against Estrogen receptor beta; in experiment [4]) was “Not Active” throughout. In addition, the IC50 entry in experiment [5] is given as “Not Active”. Moreover, the Ki entry in experiment [2] and in experiment [4] was “Not Active” each time.
For `N=C(N)c1ccc(OCCCCCOc2ccc(C(=N)N)cc2)cc1` [PENTAMIDINE], the IC50 entry was “Not Active” in experiment [1] (cho-k1); “Not Active” on Progesterone receptor; 1390 nM in experiment [2] (read-out: IC50); “Not Active” in experiment [3]; “Not Active” in experiment [4]; “Not Active” in experiment [5]. The Ki was 1350 nM in experiment [2] (read-out: Ki) and “Not Active” in experiment [4].
`NNCCc1ccccc1` [PHENELZINE]: the IC50 result (in experiment [1] (cho-k1); on Progesterone receptor; in experiment [2]; in experiment [3]; in experiment [4]; in experiment [5]) was “Not Active” in each case. In addition, the Ki entry in experiment [2] and in experiment [4] was “Not Active” throughout.
Consider `CCCNC(C)C(=O)Nc1ccccc1C` (stereo not drawn) [PRILOCAINE], for which the IC50 result (in experiment [1] (cho-k1); at Progesterone receptor; in experiment [2]; in experiment [3]; in experiment [4]; in experiment [5]) was “Not Active” in each case. The Ki result in experiment [2] and in experiment [4] was “Not Active” throughout.
For `C[C@]12C=CC(=O)C=C1CC[C@H]1[C@@H]3C[C@@H](O)[C@](O)(C(=O)CO)[C@@]3(C)C[C@H](O)[C@@]12F` [TRIAMCINOLONE], the IC50 entry (in experiment [1] (cho-k1); at Progesterone receptor; in experiment [2]; in experiment [3]; in experiment [4]; in experiment [5]) was “Not Active” in each case. Also, the Ki entry in experiment [2] and in experiment [4] was “Not Active” throughout.
Turning to `CCN(C(C)=O)c1cccc(-c2ccnc3c(C#N)cnn23)c1` [ZALEPLON], the IC50 result (in experiment [1] (cho-k1); at Progesterone receptor; in experiment [2]; in experiment [3]; in experiment [4]; in experiment [5]) was “Not Active” throughout. Besides, the Ki entry in experiment [2] and in experiment [4] was “Not Active” in each case.

These data come from ChEMBL document CHEMBL1909046, “DrugMatrix in vitro pharmacology data”.
